Reference: patent US8163779B2, “Glucokinase activators” (Takeda San Diego, Inc., priority 2006, dated 2012)

Target: T1, glucokinase (GK) (Homo sapiens, UniProt P35557)
T1 construct: I.D. No. 1 corresponds to residues 12-465 of glucokinase; made in house; host or cells: E. coli DH10b-T1r
T1 sequence (P35557 with tags, fused parts or gaps isoform P35557-2): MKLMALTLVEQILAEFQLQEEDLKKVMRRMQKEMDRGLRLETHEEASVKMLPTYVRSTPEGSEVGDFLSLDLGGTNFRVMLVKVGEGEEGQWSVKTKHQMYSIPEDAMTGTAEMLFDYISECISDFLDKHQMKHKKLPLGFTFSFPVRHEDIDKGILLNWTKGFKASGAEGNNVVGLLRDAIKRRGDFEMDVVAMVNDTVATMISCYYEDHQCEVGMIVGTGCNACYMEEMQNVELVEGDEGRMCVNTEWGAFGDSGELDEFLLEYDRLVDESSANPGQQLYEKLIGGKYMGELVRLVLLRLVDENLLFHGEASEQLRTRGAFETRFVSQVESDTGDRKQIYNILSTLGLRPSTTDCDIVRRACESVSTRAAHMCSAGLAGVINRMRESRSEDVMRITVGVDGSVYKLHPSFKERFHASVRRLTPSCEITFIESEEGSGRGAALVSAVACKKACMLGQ
Test: enzymatic glucokinase activity assay (ATP consumption, KinaseGlo luminescence)
Assay type: biochemical
Details: recombinant GK residues 12-465; 5 μM ATP, 5 mM Glucose; Kact = concentration that displays 50% of the maximal increase in GK activity; read-out: pKact
Source text: The activity of compounds as glucokinase activators may be assayed in vitro, in vivo or in a cell line. Provided below is an enzymatic glucokinase activity assay.
Purified glucokinase may be obtained as follows. […] SEQ.
The expression of recombinant glucokinase protein may be carried out by transformation and growth of DH10b-T1r E. coli cells incorporating the (pFLAG-CTC) plasmid in LB media. Protein expression can be induced in this system by the addition of IPTG to the culture medium.
Recombinant protein may be isolated from cellular extracts by passage over Sepharose Q Fast Flow resin (Pharmacia). This partially purified GK extract may then be further purified by a second passage over Poros HQ 10 (Applied Biosystems). The purity of GK may be determined on denaturing SDS-PAGE gel. Purified GK may then be concentrated to a final concentration of 20.0 mg/ml. After flash freezing in liquid nitrogen, the proteins can be stored at −78° C. in a buffer containing 25 mM TRIS-HCl pH 7.6, 50 mM NaCl, and 0.5 mM TCEP.
The activation properties of compounds for GK may be determined using a black 384-well-plate format under the following reaction conditions: 25 mM Hepes pH 7.2, 25 mM NaCl, 10 mM MgCl2, 0.01% Brij35, 1 mM DTT, 5 μM ATP, 5 mM Glucose 2% DMSO. The amount of ATP consumed may be determined quantitatively by addition of equal volume of luciferase reagent (luciferase+beetle luciferin—KinaseGlo Luminescent Kinase Assay kit from Promega). The luminescence intensity may be measured by using the Analyst HT from LJL Biosystems.
The reaction mixture may then be incubated at room temperature for 60 min, and quenched and developed by addition of 10 μL of luciferase reagent. Luminescence intensities of the resulting reaction mixtures may be measured after a 10 min incubation at room temperature. The luminescence intensity may be measured by using the Analyst HT from LJL Biosystems.
pKact values may be calculated by non-linear curve fitting of the compound concentrations and luminescence intensities to a standard inhibition/activation equation.

EC50 | SMILES
< 1.58 µM | Cc1cc(S(=O)(=O)C2CCCC2)cc(=O)n1[C@@H](CC1CCOCC1)C(=O)Nc1ccc(Cl)cn1 [Example 166, (S)-N-(5-chloropyridin-2-yl)-2-(4-(cyclopentylsulfonyl)-6-methyl-2-oxopyridin-1(2H)-yl)-3-(tetrahydro-2H-pyran-4-yl)propanamide]
1.58 to 15.8 µM | Cc1cc(S(=O)(=O)C2CCCC2)cc(=O)n1[C@@H](CC1CCOCC1)C(=O)Nc1ccc(C(N)=O)cn1 [Example 182, (S)-6-(2-(4-(cyclopentylsulfonyl)-6-methyl-2-oxopyridin-1(2H)-yl)-3-(tetrahydro-2H-pyran-4-yl)propanamido)nicotinamide]
< 1.58 µM | COc1ccc2nc(NC(=O)[C@H](CC3CCOCC3)n3ccc(S(=O)(=O)C4CCCC4)cc3=O)sc2n1 [Example 59, (S)-2-(4-(cyclopentylsulfonyl)-2-oxopyridin-1(2H)-yl)-N-(5-methoxythiazolo[5,4-b]pyridin-2-yl)-3-(tetrahydro-2H-pyran-4-yl)propanamide]
> 15.8 µM | Cc1cc(-c2ccoc2)cc(=O)n1[C@@H](CC1CCCCC1)C(=O)Nc1nccs1 [Example 99, (S)-3-cyclohexyl-2-(4-(furan-3-yl)-6-methyl-2-oxopyridin-1(2H)-yl)-N-(thiazol-2-yl)propanamide]
> 15.8 µM | Cc1cc(N2CCOCC2)cc(=O)n1[C@H](CC1CCCCC1)C(=O)Nc1nccs1 (stereo in doubt) [Example 79, 3-cyclohexyl-2-(6-methyl-4-morpholino-2-oxopyridin-1(2H)-yl)-N-(thiazol-2-yl)propanamide]
< 1.58 µM | Cc1c(S(=O)(=O)C2CCCC2)c(C)c(=O)n([C@@H](CC2CCOCC2)C(=O)Nc2ncc(Cl)s2)c1C [Example 135, (S)-N-(5-chlorothiazol-2-yl)-2-(4-(cyclopentylsulfonyl)-3,5,6-trimethyl-2-oxopyridin-1(2H)-yl)-3-(tetrahydro-2H-pyran-4-yl)propanamide]
> 15.8 µM | Cc1cc(C)cc(CC(C(=O)Nc2ncc(Cl)s2)n2ccc(S(C)(=O)=O)cc2=O)c1 (centres unmarked) [Example 24, N-(5-chlorothiazol-2-yl)-3-(3,5-dimethylphenyl)-2-(4-(methylsulfonyl)-2-oxopyridin-1(2H)-yl)propanamide]
> 15.8 µM | CS(=O)(=O)c1ccn(C(CC2CCOCC2)C(=O)Nc2ncc(CCC(=O)O)s2)c(=O)c1 (centres unmarked) [Example 53, 3-(2-(2-(4-(methylsulfonyl)-2-oxopyridin-1(2H)-yl)-3-(tetrahydro-2H-pyran-4-yl)propanamido)thiazol-5-yl)propanoic acid]
> 15.8 µM | Cc1cc(C#CCO)cc(=O)n1[C@H](CC1CCOCC1)C(=O)Nc1ncc(Cl)s1 (stereo in doubt) [Example 137, N-(5-chlorothiazol-2-yl)-2-(4-(3-hydroxyprop-1-ynyl)-6-methyl-2-oxopyridin-1(2H)-yl)-3-(tetrahydro-2H-pyran-4-yl)propanamide]
1.58 to 15.8 µM | Cc1cc(S(=O)(=O)Cc2cccs2)cc(=O)n1C(CC1CCCCC1)C(=O)Nc1ncc(Cl)s1 (centres unmarked) [Example 80, N-(5-chlorothiazol-2-yl)-3-cyclohexyl-2-(6-methyl-2-oxo-4-(thiophen-2-ylmethylsulfonyl)pyridin-1(2H)-yl)propanamide]
1.58 to 15.8 µM | COc1ccc2nc(NC(=O)[C@H](CC3CCOCC3)n3ccc(S(=O)(=O)CCCO)cc3=O)sc2n1 [Example 72, (S)-2-(4-(3-hydroxypropylsulfonyl)-2-oxopyridin-1(2H)-yl)-N-(5-methoxythiazolo[5,4-b]pyridin-2-yl)-3-(tetrahydro-2H-pyran-4-yl)propanamide]
> 15.8 µM | Cn1ccc(NC(=O)[C@@H](CC2CCOCC2)n2ccc(S(=O)(=O)C3CC3)cc2=O)n1 [Example 73, (R)-2-(4-(cyclopropylsulfonyl)-2-oxopyridin-1(2H)-yl)-N-(1-methyl-1H-pyrazol-3-yl)-3-(tetrahydro-2H-pyran-4-yl)propanamide]
> 15.8 µM | COc1ccc(Cl)cc1-c1cc(C)n([C@@H](CC2CCCCC2)C(=O)Nc2nccs2)c(=O)c1 [Example 103, (S)-2-(4-(5-chloro-2-methoxyphenyl)-6-methyl-2-oxopyridin-1(2H)-yl)-3-cyclohexyl-N-(thiazol-2-yl)propanamide]
< 1.58 µM | Cc1cc(S(=O)(=O)C2CC2)cc(=O)n1[C@@H](CC1CCCC1)C(=O)Nc1ncc(F)s1 [Example 162, (S)-3-cyclopentyl-2-(4-(cyclopropylsulfonyl)-6-methyl-2-oxopyridin-1(2H)-yl)-N-(5-fluorothiazol-2-yl)propanamide]
> 15.8 µM | Cc1cc(S(=O)(=O)Cc2ccco2)cc(=O)n1[C@H](CC1CCOCC1)C(=O)Nc1ncc(Cl)s1 [Example 142, (R)-N-(5-chlorothiazol-2-yl)-2-(4-(furan-2-ylmethylsulfonyl)-6-methyl-2-oxopyridin-1(2H)-yl)-3-(tetrahydro-2H-pyran-4-yl)propanamide]
> 15.8 µM | COc1ccc(-c2cc(C)n([C@@H](CC3CCCCC3)C(=O)Nc3nccs3)c(=O)c2)cc1 [Example 96, (S)-3-cyclohexyl-2-(4-(4-methoxyphenyl)-6-methyl-2-oxopyridin-1(2H)-yl)-N-(thiazol-2-yl)propanamide]
> 15.8 µM | CS(=O)(=O)c1ccn(C(Cc2ccsc2)C(=O)Nc2ncc(Cl)s2)c(=O)c1 (centres unmarked) [Example 15, N-(5-chlorothiazol-2-yl)-2-(4-(methylsulfonyl)-2-oxopyridin-1(2H)-yl)-3-(thiophen-3-yl)propanamide]
1.58 to 15.8 µM | COC(C)(C)c1cnc(NC(=O)[C@H](CC2CCOCC2)n2ccc(S(=O)(=O)C3CC3)cc2=O)s1 [Example 133, (S)-2-(4-(cyclopropylsulfonyl)-2-oxopyridin-1(2H)-yl)-N-(5-(2-methoxypropan-2-yl)thiazol-2-yl)-3-(tetrahydro-2H-pyran-4-yl)propanamide]
1.58 to 15.8 µM | O=C(Nc1ncc(Cl)s1)[C@H](CC1CCOCC1)n1cc(Cl)c(S(=O)(=O)C2CC2)cc1=O [Example 196, (S)-2-(5-chloro-4-(cyclopropylsulfonyl)-2-oxopyridin-1(2H)-yl)-N-(5-chlorothiazol-2-yl)-3-(tetrahydro-2H-pyran-4-yl)propanamide]
1.58 to 15.8 µM | Cc1cc(-c2ccc(C#N)cc2)cc(=O)n1[C@@H](CC1CCCCC1)C(=O)Nc1nccs1 [Example 98, (S)-2-(4-(4-cyanophenyl)-6-methyl-2-oxopyridin-1(2H)-yl)-3-cyclohexyl-N-(thiazol-2-yl)propanamide]
> 15.8 µM | COCCC(C)(C)S(=O)(=O)c1ccn([C@H](CC2CCOCC2)C(=O)Nc2nc3ccc(OC)nc3s2)c(=O)c1 [Example 120, (R)-2-(4-(4-methoxy-2-methylbutan-2-ylsulfonyl)-2-oxopyridin-1(2H)-yl)-N-(5-methoxythiazolo[5,4-b]pyridin-2-yl)-3-(tetrahydro-2H-pyran-4-yl)propanamide]
1.58 to 15.8 µM | O=C(Nc1ncc(F)s1)C(CC1CCOCC1)n1cc(Cl)c(S(=O)(=O)C2CCCC2)cc1=O (centres unmarked) [Example 186, 2-(5-chloro-4-(cyclopentylsulfonyl)-2-oxopyridin-1(2H)-yl)-N-(5-fluorothiazol-2-yl)-3-(tetrahydro-2H-pyran-4-yl)propanamide]
> 15.8 µM | Cc1cc(S(=O)(=O)C2CCCC2)cc(=O)n1[C@H](CC1CCOCC1)C(=O)Nc1ccc(Cl)cn1 [Example 167, (R)-N-(5-chloropyridin-2-yl)-2-(4-(cyclopentylsulfonyl)-6-methyl-2-oxopyridin-1(2H)-yl)-3-(tetrahydro-2H-pyran-4-yl)propanamide]
